In patent publication US8299065B2, “Antibacterial condensed thiazoles” (Biota Europe Ltd., priority 2007, dated 2012):
Values after ≈ are worked out from the molar mass of the structure shown.

Key:
[1] = test system: Enterococcus faecalis ATCC 29212; test: MIC testing against Enterococcus faecalis ATCC 29212; type: cell-based; settings: ATCC29212, read-out: MICs against Enterococcus faecalis, Activity
Procedure: (§1) Minimum Inhibitory Concentration (MIC) Testing Compounds of this invention were tested for antimicrobial activity by susceptibility testing in liquid or on solid media. MICs for compounds against each strain were determined by the broth microdilution or agar dilution method according to the guidelines of the Clinical Laboratories and Standards Institute, formerly the National Committee for Clinical Laboratory Standards (Clinical Laboratories and Standards Institute. Methods for Dilution Antimicrobial Susceptibility Tests for Bacteria That Grow Aerobically; Approved Standard—Seventh Edition. Document M7-A7. CLSI, Wayne, Pa., 2006; Clinical Laboratories and Standards Institute. Methods for Antimicrobial Susceptibility Testing of Anaerobic Bacteria; Approved Standard—Sixth Edition. Document M11-A6. CLSI, Wayne, Pa., 2004).

[2] = test system: Enterococcus faecalis clinical isolates; test: MIC testing, clinical isolates; type: cell-based; settings: 10 clinical isolates
Procedure: as §1, with “2004). Some of the Example compounds were also tested for activity against clinical isolates of various bacterial species.” for “2004).”

[3] = test system: Enterococcus faecium clinical isolates; test: MIC testing, clinical isolates; type: cell-based; settings: 10 clinical isolates
Procedure: as §1, with “2004). Some of the Example compounds were also tested for activity against clinical isolates of various bacterial species.” for “2004).”

[4] = test system: Propionibacterium acnes clinical isolates; test: MIC testing, clinical isolates; type: cell-based; settings: 5 clinical isolates
Procedure: as §1, with “2004). Some of the Example compounds were also tested for activity against clinical isolates of various bacterial species.” for “2004).”

[5] = test system: Staphylococcus epidermidis clinical isolates; test: MIC testing, clinical isolates; type: cell-based; settings: 10 clinical isolates
Procedure: as §1, with “2004). Some of the Example compounds were also tested for activity against clinical isolates of various bacterial species.” for “2004).”

[6] = test system: Staphylococus aureus clinical isolates; test: MIC testing, clinical isolates; type: cell-based; settings: 10 clinical isolates
Procedure: as §1, with “2004). Some of the Example compounds were also tested for activity against clinical isolates of various bacterial species.” for “2004).”

[7] = test system: Streptococcus pneumoniae clinical isolates; test: MIC testing, clinical isolates; type: cell-based; settings: 10 clinical isolates
Procedure: as §1, with “2004). Some of the Example compounds were also tested for activity against clinical isolates of various bacterial species.” for “2004).”

[8] = test system: Streptococcus pyogenes clinical isolates; test: MIC testing, clinical isolates; type: cell-based; settings: 10 clinical isolates
Procedure: as §1, with “2004). Some of the Example compounds were also tested for activity against clinical isolates of various bacterial species.” for “2004).”

[9] = test system: Enterococcus faecalis (VRE) ATCC 51299; test: MIC testing, various bacteria; type: cell-based
Procedure: (§2) Minimum Inhibitory Concentration (MIC) Testing
as §1, with “Compounds” for “Minimum Inhibitory Concentration (MIC) Testing Compounds”
(§3) Some of the Example compounds were also tested for activity against other bacterial species.

[10] = test system: Enterococcus faecium (VRE) ATCC 700221; test: MIC testing, various bacteria; type: cell-based
Procedure: as §2
as §1, with “Compounds” for “Minimum Inhibitory Concentration (MIC) Testing Compounds”
as §3

[11] = test system: Haemophilus influenzae ATCC 49247; test: MIC testing, various bacteria; type: cell-based; settings: ATCC49247
Procedure: as §2
as §1, with “Compounds” for “Minimum Inhibitory Concentration (MIC) Testing Compounds”
as §3

[12] = test system: Moraxella catarrhalis ATCC 25240; test: MIC testing, various bacteria; type: cell-based; settings: ATCC25240
Procedure: as §2
as §1, with “Compounds” for “Minimum Inhibitory Concentration (MIC) Testing Compounds”
as §3

[13] = test system: Staphylococcus aureus ATCC 29213; test: MIC testing, various bacteria; type: cell-based; settings: ATCC29213
Procedure: as §2
as §1, with “Compounds” for “Minimum Inhibitory Concentration (MIC) Testing Compounds”
as §3

[14] = test system: Staphylococcus epidermidis ATCC 12228; test: MIC testing, various bacteria; type: cell-based; settings: ATCC12228
Procedure: as §2
as §1, with “Compounds” for “Minimum Inhibitory Concentration (MIC) Testing Compounds”
as §3

[15] = test system: Staphylococcus haemolyticus ATCC 29970; test: MIC testing, various bacteria; type: cell-based; settings: ATCC29970
Procedure: as §2
as §1, with “Compounds” for “Minimum Inhibitory Concentration (MIC) Testing Compounds”
as §3

[16] = test system: Streptococcus agalactiae ATCC 13813; test: MIC testing, various bacteria; type: cell-based; settings: ATCC13813
Procedure: as §2
as §1, with “Compounds” for “Minimum Inhibitory Concentration (MIC) Testing Compounds”
as §3

[17] = test system: Streptococcus mutans ATCC 35668; test: MIC testing, various bacteria; type: cell-based; settings: ATCC35668
Procedure: as §2
as §1, with “Compounds” for “Minimum Inhibitory Concentration (MIC) Testing Compounds”
as §3

[18] = test system: Streptococcus pneumoniae ATCC 49619; test: MIC testing, various bacteria; type: cell-based; settings: ATCC49619
Procedure: as §2
as §1, with “Compounds” for “Minimum Inhibitory Concentration (MIC) Testing Compounds”
as §3

[19] = test system: Streptococcus pyogenes ATCC 51339; test: MIC testing, various bacteria; type: cell-based; settings: ATCC51339
Procedure: as §2
as §1, with “Compounds” for “Minimum Inhibitory Concentration (MIC) Testing Compounds”
as §3

CCNC(=O)Nc1nc2cc(-c3cc(C)n(Cc4cccnc4)c(=O)c3)c(F)cc2s1 [Example 49, 1-ethyl-3-(6-fluoro-5-(6-methyl-2-oxo-1-(pyridin-3-ylmethyl)-1,2-dihydropyridin-4-yl)benzo[d]thiazol-2-yl)urea]
MIC [1]: 0.25 to 1 µg/mL (≈ 0.571 to 2.29 µM) | MIC90 [2]: 0.25 µg/mL (≈ 0.571 µM) | MIC range [2]: 0.06 to 0.5 µg/mL | MIC90 [3]: 0.5 µg/mL (≈ 1.14 µM) | MIC range [3]: 0.25 to 0.5 µg/mL | MIC range [4]: 1 µg/mL (≈ 2.29 µM) | MIC90 ([4]; Cutibacterium acnes): 1 µg/mL (≈ 2.29 µM) | MIC90 [5]: 0.03 µg/mL (≈ 0.0686 µM) | MIC range [5]: 0.008 to 0.06 µg/mL | MIC90 [6]: 0.06 µg/mL (≈ 0.137 µM) | MIC range [6]: 0.03 to 0.12 µg/mL | MIC90 [7]: 0.015 µg/mL (≈ 0.0343 µM) | MIC range [7]: 0.008 to 0.03 µg/mL | MIC90 [8]: 0.25 µg/mL (≈ 0.571 µM) | MIC range [8]: 0.12 to 0.5 µg/mL

CCNC(=O)Nc1nc2cc(-c3ccn(C)c(=O)c3)ccc2s1 [Example 3, 1-Ethyl-3-(5-(1-methyl-2-oxo-1,2-dihydro-pyridin-4-yl)-benzothiazol-2-yl)urea]
MIC [1]: 0.25 to 1 µg/mL (≈ 0.761 to 3.05 µM) | MIC [9]: 2 to 16 µg/mL (≈ 6.09 to 48.7 µM) | MIC [10]: 2 to 16 µg/mL (≈ 6.09 to 48.7 µM) | MIC [11]: 2 to 16 µg/mL (≈ 6.09 to 48.7 µM) | MIC [12]: 0.25 to 1 µg/mL (≈ 0.761 to 3.05 µM) | MIC [13]: 0.25 to 1 µg/mL (≈ 0.761 to 3.05 µM) | MIC [14]: 0.25 to 1 µg/mL (≈ 0.761 to 3.05 µM) | MIC [15]: 0.25 to 1 µg/mL (≈ 0.761 to 3.05 µM) | MIC [16]: 0.25 to 1 µg/mL (≈ 0.761 to 3.05 µM) | MIC [17]: 0.25 to 1 µg/mL (≈ 0.761 to 3.05 µM) | MIC [18]: < 0.25 µg/mL | MIC [19]: 0.25 to 1 µg/mL (≈ 0.761 to 3.05 µM)

CCNC(=O)Nc1nc2cc(-c3cccnc3)c(F)cc2s1 [Example 4, 1-Ethyl-3-(6-fluoro-5-pyridin-3-yl-benzothiazol-2-yl)-urea]
MIC [1]: 0.25 to 1 µg/mL (≈ 0.79 to 3.16 µM) | melting point: 199.1 °C
